Results as given in PubChem BioAssay (NCI).
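All cell lines were grown in 96-well plates and treated with compound for 48 hours. Definition used: TGI = concentration required for complete inhibition of growth.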

Key:
Experiment in all cases: NCI anticancer screen, dose series, 48 h
IGROV1 ovarian = tested on: IGROV1 ovarian
UACC-257 melanoma = tested on: UACC-257 melanoma
COLO 205 colon = tested on: COLO 205 colon
HCC-2998 colon = tested on: HCC-2998 colon
A498 renal = tested on: A498 renal
SN12C renal = tested on: SN12C renal
KM12 colon = tested on: KM12 colon
SK-MEL-5 melanoma = tested on: SK-MEL-5 melanoma
MALME-3M melanoma = tested on: MALME-3M melanoma
ACHN renal = tested on: ACHN renal
SK-OV-3 ovarian = tested on: SK-OV-3 ovarian
OVCAR-3 ovarian = tested on: OVCAR-3 ovarian
UO-31 renal = tested on: UO-31 renal
HCT-116 colon = tested on: HCT-116 colon
786-0 renal = tested on: 786-0 renal
SF-295 CNS = tested on: SF-295 CNS
PC-3 prostate = tested on: PC-3 prostate
NCI-H226 lung = tested on: NCI-H226 lung
OVCAR-4 ovarian = tested on: OVCAR-4 ovarian
CCRF-CEM leukemia = tested on: CCRF-CEM leukemia
SR leukemia = tested on: SR leukemia
RPMI-8226 leukemia = tested on: RPMI-8226 leukemia
HCT-15 colon = tested on: HCT-15 colon
HT29 colon = tested on: HT29 colon
T-47D breast = tested on: T-47D breast
SNB-19 CNS = tested on: SNB-19 CNS
MDA-N = tested on: MDA-N
DU-145 prostate = tested on: DU-145 prostate
NCI/ADR-RES ovarian = tested on: NCI/ADR-RES ovarian
K-562 leukemia = tested on: K-562 leukemia
SF-268 CNS = tested on: SF-268 CNS
UACC-62 melanoma = tested on: UACC-62 melanoma
CAKI-1 renal = tested on: CAKI-1 renal
LOX IMVI melanoma = tested on: LOX IMVI melanoma
HL-60(TB) leukemia = tested on: HL-60(TB) leukemia
NCI-H522 lung = tested on: NCI-H522 lung
SF-539 CNS = tested on: SF-539 CNS
SW-620 colon = tested on: SW-620 colon
SK-MEL-28 melanoma = tested on: SK-MEL-28 melanoma
NCI-H23 lung = tested on: NCI-H23 lung
HOP-92 NSCLC = tested on: HOP-92 NSCLC
MOLT-4 leukemia = tested on: MOLT-4 leukemia
OVCAR-5 ovarian = tested on: OVCAR-5 ovarian
HS 578T breast = tested on: HS 578T breast
MCF7 breast = tested on: MCF7 breast
MDA-MB-231 breast = tested on: MDA-MB-231 breast
BT-549 breast = tested on: BT-549 breast
OVCAR-8 ovarian = tested on: OVCAR-8 ovarian
A549 NSCLC = tested on: A549 NSCLC
NCI-H460 lung = tested on: NCI-H460 lung
U251 CNS = tested on: U251 CNS
MDA-MB-435 = tested on: MDA-MB-435
SK-MEL-2 melanoma = tested on: SK-MEL-2 melanoma
TK-10 renal = tested on: TK-10 renal
M14 melanoma = tested on: M14 melanoma
SNB-75 CNS = tested on: SNB-75 CNS
HOP-62 NSCLC = tested on: HOP-62 NSCLC
EKVX NSCLC = tested on: EKVX NSCLC

Measured: TGI

O=C(O)COc1cc(-c2ccccc2)nc2ccc(F)cc12
> 100 µM: all assays above
